Reference: paper PMC7576608, “Mechanisms of telomerase inhibition by oxidized and therapeutic dNTPs” (Nature Communications, 2020)
Values joined by “and” are separate entries in the source; they are usually repeats but may differ in a detail not shown here. Equal values may be shown once. Read-outs that look alike come from different tables or passages of the source.

Biological target: telomerase (Homo sapiens, UniProt O14746)
Experiment: Telomerase repeat processivity IC50: modified dNTP titrated into reactions with all four natural dNTPs
Assay type: biochemical
Design: made in house; anti-FLAG immunopurification, eluted with 3xFLAG peptide
Settings: for Processivity R 1/2: replicates n1-n4; for YIntercept (line fit of ln(100-%LB) vs # telomere repeats) / ln(100-%LB): n1-n3
From the text: In order to better understand the ability of modified dNTPs to compete with natural dNTPs for telomerase utilization, we added modified dNTPs to reactions containing all four natural dNTPs. […] The calculated IC50 determines the concentration required to reduce repeat processivity in the bulk reactions by half. However, it is important to note that bulk experiments cannot distinguish effects on individual telomeres, since extended telomeres mask unextended telomeres. Incorporation of a chain terminator during any step will terminate extension of the affected telomere, and just five critically short telomeres are sufficient to trigger senescence. Therefore, repeat processivity IC50 values are not necessarily an indicator of the inhibitory potency, but provide information on selectivity for modified dNTPs compared to natural dNTPs. […] The ability to purify sufficient quantities of tcTERT enables characterization of the catalytic nucleotide addition by pre-steady-state single turnover kinetics using a defined DNA–RNA primer–template substrate. The catalytic efficiency of incorporating a single dNTP is measured by dividing the observed nucleotide incorporation rate constant, kpol, by the equilibrium dissociation constant for dNTP binding to the tcTERT–primer–template complex (Kd)[44].
The reactions were started by the addition of 3 μl of immunopurified telomerase eluent, incubated at 37 °C for 1 h, then terminated with 2 μl of […] and heat inactivated at 65 °C for 20 min. An equal volume of loading buffer (94% formamide, 0.1× TBE, 0.1% bromophenol blue, 0.1% xylene cyanol) was added to the reaction eluent. The samples were heat denatured for 10 min at 100 °C and loaded onto a 14% denaturing acrylamide gel (7 M urea, 1× TBE) and electrophoresed for 90 min at constant 38 W. Samples were imaged using a Typhoon phosphorimager (GE Healthcare). Percent primer extension was calculated with ImageQuant TL 8.2 by measuring the intensity of each product band and dividing by the total radioactivity in the lane or total products, as indicated in the figure legends.
The processivity was calculated as described[40],[67]. Repeat processivity from the direct telomerase extension assays was calculated as R1/2 (equivalent to the half-time for decay in an exponential time course), which represents the median length of DNA product formed, expressed in terms of number of telomere repeats. First, the total volume counts for each product band extend by one or more telomere repeats were obtained using Image Quant TL. The volume counts were then normalized by dividing by the number of radiolabeled guanosines incorporated into the extended products based on the number of repeats added, termed corrected volume (corr vol). The “percent left behind” (%LB) was calculated for each product band by summing the counts for that product band and for every product band below (shorter products), divided by the total counts for the lane, and then multiplied by 100. The natural log of (100−%LB) was calculated and then plotted vs. repeat number for each product length. A linear regression line was fit to the data to determine the slope of the line. The R1/2 value was calculated by dividing −ln(2) by the slope of each fitted line (R1/2 = −ln(2)/slope).
Supplementary Fig 8. IC50 values for telomerase processivity inhibition. Telomerase reactions were conducted with cellular relevant concentrations of all four natural dNTPs and increasing concentrations of the modified dNTP analog from 0 to 10,000 μM to calculate. (a) The natural log of (100-%LB) was plotted vs repeat number. A straight line was fit to the data and the R1/2 value was calculated by dividing –ln(2) by the slope of each line. Plots shown from one experiment are […]

[1] = fit of R 1/2 vs log(concentration), 8-oxo-dGTP, replicates N1-N4

telomerase, sequence (O14746 whole entry): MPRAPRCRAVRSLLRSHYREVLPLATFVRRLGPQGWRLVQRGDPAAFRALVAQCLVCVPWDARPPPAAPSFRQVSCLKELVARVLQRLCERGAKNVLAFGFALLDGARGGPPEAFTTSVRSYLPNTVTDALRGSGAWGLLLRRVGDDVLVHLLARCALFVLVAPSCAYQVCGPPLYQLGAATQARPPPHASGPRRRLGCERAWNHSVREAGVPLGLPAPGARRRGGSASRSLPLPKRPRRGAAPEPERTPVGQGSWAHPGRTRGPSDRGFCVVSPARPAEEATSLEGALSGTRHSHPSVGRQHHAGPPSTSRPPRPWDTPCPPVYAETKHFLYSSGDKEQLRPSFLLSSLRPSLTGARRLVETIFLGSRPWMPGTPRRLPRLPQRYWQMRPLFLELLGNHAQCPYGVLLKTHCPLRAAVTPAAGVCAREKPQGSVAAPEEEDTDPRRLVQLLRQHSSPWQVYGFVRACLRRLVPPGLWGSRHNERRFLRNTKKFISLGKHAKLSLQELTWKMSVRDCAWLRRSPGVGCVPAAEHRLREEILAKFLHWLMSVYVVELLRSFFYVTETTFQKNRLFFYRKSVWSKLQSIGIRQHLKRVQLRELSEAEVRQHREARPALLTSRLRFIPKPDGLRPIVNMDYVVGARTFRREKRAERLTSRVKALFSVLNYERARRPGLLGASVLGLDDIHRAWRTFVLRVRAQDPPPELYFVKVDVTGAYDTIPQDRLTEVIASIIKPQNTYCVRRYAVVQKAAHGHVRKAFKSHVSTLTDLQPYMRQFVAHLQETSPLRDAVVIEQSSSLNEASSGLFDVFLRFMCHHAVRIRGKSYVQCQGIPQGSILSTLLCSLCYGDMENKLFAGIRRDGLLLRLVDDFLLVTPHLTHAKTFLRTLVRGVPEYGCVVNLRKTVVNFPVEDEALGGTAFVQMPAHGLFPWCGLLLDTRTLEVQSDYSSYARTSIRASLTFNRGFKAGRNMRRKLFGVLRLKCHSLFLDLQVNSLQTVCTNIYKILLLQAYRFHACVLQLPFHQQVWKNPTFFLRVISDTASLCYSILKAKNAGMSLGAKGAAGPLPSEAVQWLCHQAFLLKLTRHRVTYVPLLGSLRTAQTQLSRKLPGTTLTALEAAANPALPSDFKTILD

With `Nc1nc2c([nH]c(=O)n2C2CC(O)C(COP(=O)(O)OP(=O)(O)OP(=O)(O)O)O2)c(=O)[nH]1` (stereo not drawn) [8-oxo-dGTP] as the molecule, how does the “Processivity R 1/2” value (8-oxo-dGTP 156.25 μM) read?
The value was 3.18 and 2.53 and 3.23.

What about the “YIntercept (line fit of ln(100-%LB) vs # telomere repeats)” value (8-oxo-dGTP 160μM) of the same molecule?
The value was 3.28 and 3.52 and 3.30.

And the “ln(100-%LB)” value (8-oxo-dGTP 160μM, telomere repeat 1)?
Its value is 3.67 and 3.81 and 3.65.

And the “ln(100-%LB)” value (8-oxo-dGTP 160μM, telomere repeat 2)?
The value was 3.11 and 3.28 and 3.14.

What about the “ln(100-%LB)” value (8-oxo-dGTP 160μM, telomere repeat 3) of the same molecule?
The value was 2.62 and 2.68 and 2.65.

And the “ln(100-%LB)” value (8-oxo-dGTP 160μM, telomere repeat 4)?
Its value is 2.38 and 2.37 and 2.44.

And the “ln(100-%LB)” value (8-oxo-dGTP 160μM, telomere repeat 5)?
Its value is 2.10 and 2.03 and 2.19.

What about the “ln(100-%LB)” value (8-oxo-dGTP 160μM, telomere repeat 6) of the same molecule?
Its value is 1.76 and 1.70 and 1.93.

And the “ln(100-%LB)” value (8-oxo-dGTP 160μM, telomere repeat 7)?
The value was 1.44 and 1.37 and 1.64.

What about the “ln(100-%LB)” value (8-oxo-dGTP 160μM, telomere repeat 8) of the same molecule?
The value was 1.22 and 1.14 and 1.43.

What about the “ln(100-%LB)” value (8-oxo-dGTP 160μM, telomere repeat 9) of the same molecule?
Its value is 0.99 and 0.88 and 1.23.

What about the “ln(100-%LB)” value (8-oxo-dGTP 160μM, telomere repeat 10) of the same molecule?
The value was 0.74 and 0.58 and 1.00.

And the “YIntercept (line fit of ln(100-%LB) vs # telomere repeats)” value (8-oxo-dGTP 625μM)?
The value was 3.24 and 3.54 and 3.75.

And the “Processivity R 1/2” value (8-oxo-dGTP 625 μM)?
The value was 2.67 and 2.52 and 3.04.

And the “ln(100-%LB)” value (8-oxo-dGTP 625μM, telomere repeat 1)?
The value was 3.67 and 3.79 and 3.89.

What about the “ln(100-%LB)” value (8-oxo-dGTP 625μM, telomere repeat 2) of the same molecule?
The value was 3.11 and 3.31 and 3.40.

And the “ln(100-%LB)” value (8-oxo-dGTP 625μM, telomere repeat 3)?
The value was 2.62 and 2.84 and 2.91.

What about the “ln(100-%LB)” value (8-oxo-dGTP 625μM, telomere repeat 4) of the same molecule?
Its value is 2.38 and 2.60 and 2.62.

What about the “ln(100-%LB)” value (8-oxo-dGTP 625μM, telomere repeat 5) of the same molecule?
The value was 2.10 and 2.36 and 2.34.

What about the “ln(100-%LB)” value (8-oxo-dGTP 625μM, telomere repeat 6) of the same molecule?
The value was 1.76 and 2.09 and 2.01.

And the “ln(100-%LB)” value (8-oxo-dGTP 625μM, telomere repeat 7)?
The value was 1.44 and 1.77 and 1.66.

What about the “ln(100-%LB)” value (8-oxo-dGTP 625μM, telomere repeat 8) of the same molecule?
The value was 1.22 and 1.56 and 1.41.

And the “ln(100-%LB)” value (8-oxo-dGTP 625μM, telomere repeat 9)?
Its value is 0.99 and 1.31 and 1.14.

What about the “ln(100-%LB)” value (8-oxo-dGTP 625μM, telomere repeat 10) of the same molecule?
Its value is 0.74 and 1.05 and 0.85.

And the “ln(100-%LB)” value (8-oxo-dGTP 625μM, telomere repeat 11)?
The value was 0.51 and 0.79 and 0.55.

What about the “ln(100-%LB)” value (8-oxo-dGTP 625μM, telomere repeat 12) of the same molecule?
Its value is 0.32 and 0.58 and 0.29.

And the “YIntercept (line fit of ln(100-%LB) vs # telomere repeats)” value (8-oxo-dGTP 2500μM)?
The value was 4.49 and 4.30 and 4.68.

And the “Processivity R 1/2” value (8-oxo-dGTP 2500 μM)?
The value was 0.72 and 0.43 (2×) and 0.55.

And the “ln(100-%LB)” value (8-oxo-dGTP 2500μM, telomere repeat 1)?
The value was 3.44 and 3.70 and 3.07.

What about the “Processivity R 1/2” value (8-oxo-dGTP 5000 μM) of the same molecule?
The value was 0.

And the “Processivity R 1/2” value (8-oxo-dGTP 10000 μM)?
Its value is 0.

And the IC50 (cellular relevant natural dNTPs, modified dNTP titrated 0 to 10,000 μM, based on repeat processivity, mean ± SD, read-out: Telomerase processivity IC50)?
Its IC50 is 1690 ± 172 µM.

And the LogIC50 (fit of R 1/2 vs log(concentration μM), 8-oxo-dGTP, replicates N1-N4)?
The LogIC50 was 3.24 and 3.27 and 3.16 and 3.23.

And the “Bottom (best-fit value)” value [1]?
Its value is 0.33 and -0.00509 and -0.0042 and -0.0316.

What about the HillSlope [1] of the same molecule?
Its HillSlope is -4.72 and -6.07 and -3.06 and -3.86.

And the “Span (best-fit value)” value [1]?
Its value is 2.87 and 3.02 and 2.71 and 3.30.

What about the “Top (best-fit value)” value [1] of the same molecule?
Its value is 3.21 and 3.01 and 2.70 and 3.27.

And the IC50 (log of processivity IC50 (concentration in μM), Supplementary Fig 8b, read-out: Log IC50 (converted))?
Its IC50 is 2000 µM.

And the IC50 (repeat processivity R 1/2, 8-oxo-dGTP, single replicates N1-N4, read-out: IC50)?
The IC50 was 1740 µM and 1870 µM and 1460 µM and 1690 µM.
